Results reported in ChEMBL document CHEMBL1201862, “PubChem BioAssay data set” (2004).
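Compound exposure: 48 hours, 5 concentrations, 96-well plates. Abbreviation: GI50, concentration required for 50% inhibition of growth.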 Active and inactive are the calls of the source. Rule as the data show it: active = GI50 up to about 1.1 µM and inactive = higher.

Tests used:
Experiment in all cases: inhibition of tumour cell growth, NCI panel, 48 h
HL-60 = tested on: HL-60
SF-295 = tested on: SF-295
NCI-H522 = tested on: NCI-H522
HOP-92 = tested on: HOP-92
NCI/ADR-RES = tested on: NCI/ADR-RES
COLO 205 = tested on: COLO 205
SW-620 = tested on: SW-620
U-251 = tested on: U-251
TK-10 = tested on: TK-10
KM12 = tested on: KM12
NCI-H226 = tested on: NCI-H226
HCT-15 = tested on: HCT-15
PC-3 = tested on: PC-3
OVCAR-8 = tested on: OVCAR-8
HOP-62 = tested on: HOP-62
A498 = tested on: A498
SNB-75 = tested on: SNB-75
M14 = tested on: M14
SN12C = tested on: SN12C
MDA-MB-231 = tested on: MDA-MB-231
MDA-MB-435 = tested on: MDA-MB-435
LOX IMVI = tested on: LOX IMVI
SR = tested on: SR
UO-31 = tested on: UO-31
OVCAR-5 = tested on: OVCAR-5
CCRF-CEM = tested on: CCRF-CEM
MCF7 = tested on: MCF7
NCI-H23 = tested on: NCI-H23
NCI-H460 = tested on: NCI-H460
MDA-N = tested on: MDA-N
BT-549 = tested on: BT-549
DU-145 = tested on: DU-145
RPMI-8226 = tested on: RPMI-8226
ACHN = tested on: ACHN
OVCAR-4 = tested on: OVCAR-4
UACC-62 = tested on: UACC-62
MOLT-4 = tested on: MOLT-4
SK-OV-3 = tested on: SK-OV-3
T47D = tested on: T47D
SK-MEL-5 = tested on: SK-MEL-5
RXF 393 = tested on: RXF 393
OVCAR-3 = tested on: OVCAR-3
SK-MEL-2 = tested on: SK-MEL-2
CAKI-1 = tested on: CAKI-1
SNB-19 = tested on: SNB-19
HCT-116 = tested on: HCT-116
IGROV-1 = tested on: IGROV-1
Hs-578T = tested on: Hs-578T
SF-539 = tested on: SF-539
SF-268 = tested on: SF-268
EKVX = tested on: EKVX
786-0 = tested on: 786-0
UACC-257 = tested on: UACC-257
K562 = tested on: K562

Brc1cccc(/N=N/N2CCCC2)c1
GI50 (HL-60): 16.4 µM (inactive)
GI50 (SF-295): 97.5 µM (inactive)
GI50 (NCI-H522): 68.9 µM (inactive)
GI50 (HOP-92): 63.1 µM (inactive)
GI50 (NCI/ADR-RES): 81.5 µM (inactive)
GI50 (COLO 205): > 100 µM (inactive)
GI50 (SW-620): > 100 µM (inactive)
GI50 (U-251): 80.5 µM (inactive)
GI50 (TK-10): > 100 µM (inactive)
GI50 (KM12): 93.5 µM (inactive)
GI50 (NCI-H226): > 100 µM (inactive)
GI50 (HCT-15): 49.4 µM
GI50 (PC-3): 71.3 µM (inactive)
GI50 (OVCAR-8): > 100 µM (inactive)
GI50 (HOP-62): > 100 µM (inactive)
GI50 (A498): > 100 µM (inactive)
GI50 (SNB-75): 65.5 µM (inactive)
GI50 (M14): > 100 µM (inactive)
GI50 (SN12C): > 100 µM (inactive)
GI50 (MDA-MB-231): > 100 µM (inactive)
GI50 (MDA-MB-435): > 100 µM (inactive)
GI50 (LOX IMVI): 77.1 µM (inactive)
GI50 (SR): 27.4 µM (inactive)
GI50 (UO-31): 56.1 µM (inactive)
GI50 (OVCAR-5): > 100 µM (inactive)
GI50 (CCRF-CEM): 49.2 µM (inactive)
GI50 (MCF7): > 100 µM (inactive)
GI50 (NCI-H23): 67.9 µM (inactive)
GI50 (NCI-H460): > 100 µM (inactive)
GI50 (MDA-N): > 100 µM (inactive)
GI50 (BT-549): 68.9 µM (inactive)
GI50 (DU-145): > 100 µM (inactive)
GI50 (RPMI-8226): 17.2 µM (inactive)
GI50 (ACHN): > 100 µM (inactive)
GI50 (OVCAR-4): > 100 µM (inactive)
GI50 (UACC-62): > 100 µM (inactive)
GI50 (MOLT-4): 71.8 µM (inactive)
GI50 (SK-OV-3): > 100 µM (inactive)
GI50 (T47D): 50.2 µM (inactive)
GI50 (SK-MEL-5): 66.2 µM (inactive)
GI50 (RXF 393): > 100 µM (inactive)
GI50 (OVCAR-3): > 100 µM (inactive)
GI50 (SK-MEL-2): > 100 µM (inactive)
GI50 (CAKI-1): 75.5 µM (inactive)
GI50 (SNB-19): > 100 µM (inactive)
GI50 (HCT-116): 92.3 µM (inactive)
GI50 (IGROV-1): > 100 µM (inactive)
GI50 (Hs-578T): > 100 µM (inactive)
GI50 (SF-539): > 100 µM (inactive)
GI50 (SF-268): > 100 µM (inactive)
GI50 (EKVX): 97.9 µM (inactive)
GI50 (786-0): > 100 µM (inactive)
GI50 (UACC-257): > 100 µM (inactive)
GI50 (K562): 48.9 µM (inactive)
